Patent US7892831B2, “Method for in vitro mass culture of Aloe vera” (priority 2006, dated 2011)

Tested on: regenerated Aloe vera shoots
Experiment: in vitro rooting of regenerated Aloe vera shoots
Type: cell-based, Aloe vera (Aloe barbadensis)
Conditions: MS supplemented with IAA (0.5, 1.0 or 2.0 mg/L); hormone-free media gave 100% rooting in 3 weeks
Description: Regenerated shoots were rooted in both media containing indole acetic acid (0.5, 1.0, or 2.0 mg/L LAA) and MS media lacking any hormones. Shoots were more successfully rooted in the MS media lacking hormones. The culture conditions were the same as those used for initiation.

indole acetic acid [IAA]
rooting of shoots: no rooting was observed
